Six compounds from patent US12478569B2, “Compositions methods and device for enhancing dental care based on dead sea salt and cannabinoid or extract of cannabis plant” (CANNIBITE BVBA, priority 2019, dated 2025) can be followed below.

Common to all, as to type: cell-based
For one experiment, the system named is gingival plaque. The experiment in a line: Cannabinoid effects on gingival plaque in vitro in subjects with gum disease (FIG. 2). As to the method:
FIG. 2A-2F illustrate the effects of selected cannabinoids on gingival plaque in various individuals. Samples of gingival plaque were obtained from individuals A-F with various degrees of gum disease, samples were plated in the presence of various cannabinoids, cannabinoid formulations or essential oils, and cultured as above (samples A-F correspond to plates 1-6).
The effects of cannabinoids on gum disease was further investigated in a series of subjects with various degrees of gingivitis (an earliest and mildest form) or periodontitis (full-fledged gum disease), the severity of gum disease was further evaluated using Dutch Periodontal Screening Index (DPSI).
Samples of gingival plaque were obtained from 6 subjects (A-F) with various degrees of gum disease, samples were plated and cultured for 2 days at 37° C. in the presence of various cannabinoids and cannabinoid combinations.

The next experiment deals with dental biofilm/plaque. Nature of the experiment: Preliminary case study: dental biofilm/plaque sample plated and cultured in the presence of cannabinoids (FIG. 1). The following applies: dental plaque sample cultured for 2 days at 37° C. As to the method: FIG. 1 illustrates a case study on the antimicrobial effect of cannabinoids on dental plaque. A sample of dental plaque was plated in the presence CBD or CBG and a reference antimicrobial agent (chlorhexidine gluconate, CHG), and cultured for 2 days at 37° C. The resulting bacterial colonies are shown.
A sample of dental biofilm/plaque was obtained, plated and cultured for 2 days at 37° C. in the presence of two types of cannabinoids, CBD and CBG, and Chlorhexidine (CHG) as a reference antimicrobial agent.

In the next experiment the test system is dental flora (plaque). Nature of the experiment: Cannabinoid sensitivity tests in vitro on dental flora (plaque) of 10 subjects. Also on record: key to suppression of bacterial flora (score): Increasing scores (+) indicate an increased suppression of bacterial flora. To be noted: for suppression of bacterial flora (score): dental flora in vitro. As to the method: Subsequently, in a more extended in vitro trial the effectiveness of cannabinoids was determined in 10 subjects (A-J). Samples of dental flora (plaque) were collected by swabs, scrapes, and were tested on the following panel of cannabinoids and cannabinoid combinations: • 1=CBD • 2=CBD+CBN • 3=CBD+CBN+CBG • 4=CBD+CBN+CBG+CBC • 5=CBD+CBN+CBG+CBC+CBGA • 6=CHG reference antimicrobial agent • 7=control with no antiseptic or antimicrobial agent.
Bacterial sensitivity was determined by conventional methods, e.g., growth on selective media, microscopic fluorescence examination.

Setting [1] is: subject A, moderate gingivitis, DPSI score 1, 2 days at 37° C.
[2] abbreviates: subject D, moderate gingivitis, DPSI score 2, 2 days at 37° C.
The mark [3] stands for this setting: subject E, advanced periodontitis, DPSI score +3, 2 days at 37° C.
Where [4] appears, read: subject F, moderate gingivitis, DPSI score 1, 2 days at 37° C.
Where [5] appears, read: subject C, periodontitis, DPSI score −3, 2 days at 37° C.

Regarding `CCCCCc1cc(O)c(C/C=C(\C)CCC=C(C)C)c(O)c1C(=O)O` [CBGA, Cannabigerolic acid], the Relative effectiveness result is on record as “CBG > CBGA > CBN ≈ CBC” with gingival plaque (setting [1]), “CBGA > CBC > CBG ≈ CBN” with gingival plaque (setting [2]), “CBG ≈ CBGA > CBC > CBD” in the experiment on gingival plaque (setting [3]) and “CBC > CBG ≈ CBGA ≈ CBD” in the experiment on gingival plaque (setting [4]).
As to `CCCCCc1cc(O)c2c(c1)OC(C)(C)c1ccc(C)cc1-2` [CBN, Cannabinol], the Relative effectiveness result in the experiment with gingival plaque (setting [1]) is “CBG > CBGA > CBN ≈ CBC”; in the experiment on gingival plaque (setting [5]), “CBC > CBG > CBD > CBN”; in the experiment with gingival plaque (setting [2]), “CBGA > CBC > CBG ≈ CBN”.
For the compound `CCCCCc1cc(O)c2c(c1)OC(C)(CCC=C(C)C)C=C2` (stereo not drawn) [CBC, Cannabichromene], the Relative effectiveness result in the experiment with gingival plaque (setting [1]) is listed as “CBG > CBGA > CBN ≈ CBC”; in the experiment with gingival plaque (setting [5]), “CBC > CBG > CBD > CBN”; in the experiment on gingival plaque (setting [2]), “CBGA > CBC > CBG ≈ CBN”; in the experiment on gingival plaque (setting [3]) it was “CBG ≈ CBGA > CBC > CBD”; in the experiment with gingival plaque (setting [4]), “CBC > CBG ≈ CBGA ≈ CBD”.
On to `N=C(NCCCCCCNC(=N)NC(=N)Nc1ccc(Cl)cc1)NC(=N)Nc1ccc(Cl)cc1.O=C(O)[C@H](O)[C@@H](O)[C@H](O)[C@H](O)CO.O=C(O)[C@H](O)[C@@H](O)[C@H](O)[C@H](O)CO` [CHG, chlorhexidine gluconate], for which the “bacterial growth in the saturated zone” value in the experiment on dental biofilm/plaque is “lesser bacterial growth”. Moreover, the “suppression of bacterial flora (score)” value is recorded as “+ +” in the experiment on dental flora (plaque) (subject A); “+ +” in the experiment on dental flora (plaque) (subject B); “+” in the experiment on dental flora (plaque) (subject C); “+ +” in the experiment with dental flora (plaque) (subject D); “− −” with dental flora (plaque) (subject E); “− −” with dental flora (plaque) (subject F). Also, the “suppression of bacterial flora (score)” value was “+ + +” in the experiment with dental flora (plaque) (subject G), “+” in the experiment with dental flora (plaque) (subject H), “+ +” in the experiment with dental flora (plaque) (subject I) and “− −” in the experiment with dental flora (plaque) (subject J).
Consider `C=C(C)[C@@H]1CCC(C)=C[C@H]1c1c(O)cc(CCCCC)cc1O` [CBD, Cannabidiol], for which, in the experiment with dental biofilm/plaque, the “bacterial growth in the saturated zone” value is “no growth”. The “effectiveness on suppression of dental flora in vitro” value with dental flora (plaque) (in many individuals) is “sufficiently effective”. For the same compound, in the experiment on dental flora (plaque) (patient B), the “most effective panel of cannabinoids” value is given as “most effective”. In addition, the Relative effectiveness entry in the experiment on gingival plaque (subject B, no gingivitis and no pathology, DPSI score 0, 2 days at 37° C.) is on record as “POM ≈ POM form. ≈ CBD > CBD form”; with gingival plaque (setting [5]), “CBC > CBG > CBD > CBN”; with gingival plaque (setting [3]), “CBG ≈ CBGA > CBC > CBD”; with gingival plaque (setting [4]) it was “CBC > CBG ≈ CBGA ≈ CBD”.
Turning to `CCCCCc1cc(O)c(C/C=C(\C)CCC=C(C)C)c(O)c1` [CBG, Cannabigerol], the “bacterial growth in the saturated zone” value with dental biofilm/plaque is recorded as “lesser bacterial growth”. Besides, the Relative effectiveness entry is “CBG > CBGA > CBN ≈ CBC” in the experiment with gingival plaque (setting [1]); “CBC > CBG > CBD > CBN” in the experiment on gingival plaque (setting [5]); “CBGA > CBC > CBG ≈ CBN” in the experiment on gingival plaque (setting [2]); “CBG ≈ CBGA > CBC > CBD” in the experiment with gingival plaque (setting [3]); “CBC > CBG ≈ CBGA ≈ CBD” with gingival plaque (setting [4]).
